Reference: US20090233940A1, “Insecticide Compositions” (priority 2008, published 2009)

What was measured:
[1] = test system: Cycad Asian Scale; assay: Killing of scale insects / exterminating Cycad Asian Scale populations (general statements); details: in vivo
[2] = can be used outdoors as well as indoors; cited from earlier work

SMILES	usefulness in exterminating Cycad Asian Scale populations [1]	photostability [2]
CCOC(=O)CC(SP(=S)(OC)OC)C(=O)OCC (centres unmarked) [Malathion, malathion]	particularly useful	
CC(COc1ccc(Oc2ccccc2)cc1)Oc1ccccn1 (centres unmarked) [Nylar]		photostable
